Converted amounts (≈) assume the structure as drawn. The source made the active and inactive calls. The calls are words filed in the database; no cut-off is given here.

The text below walks through data of ChEMBL document CHEMBL1145652, “Plant anticancer agents. XXVI. Constituents of Peddiea fischeri” (1983).

For test [1], the system named is P388. Put plainly: Cytotoxicity against mouse P388 cells. It counts as functional. The following applies: read-out: ED50 (the source's name).
Test [2] deals with P388. Put plainly: In vivo antitumor activity against mouse P388 cells at 2.2 to 17.5 mg/kg. It counts as functional, organism-based.
In test [3] the test system is P388. The test can be described thus: In vivo antitumor activity against mouse P388 cells at 1.4 to 11.4 mg/kg. It counts as functional, organism-based.

`COC1=CC(=O)C=C(OC)C1=O` [2,6-DIMETHOXYQUINONE]: the EC50 in the test on P388 [1] is 0.0015 µg/mL (≈ 0.00892 µM).
For the compound `COc1cc2cc(Oc3ccc4ccc(=O)oc4c3)c(=O)oc2cc1O` [DAPHNORETIN], in the test with P388 [1], the EC50 turned out to be 2.2 µg/mL (≈ 6.24 µM). Besides, the outcome in the test on P388 [2] and in the test with P388 [3] was inactive.
On to `O=c1ccc2ccc(O)cc2o1` [UMBELLIFERONE], for which the EC50 in the test on P388 [1] worked out at 0.4 µg/mL (≈ 2.47 µM). Moreover, the result with P388 [2] and in the test on P388 [3] was inactive.
